Key:
[1] = system: young and senescent fibroblasts, HUVEC, skin keratinocytes; experiment: DNA synthesis ([3H]-thymidine incorporation); assay type: cell-based, human; settings: for basal and LPA-stimulated DNA synthesis in senescent cells: 1 mM dbcAMP or 300 μM ACI 2 hrs, then 30 μM LPA (FIG. 4A)
Method: Sub-cultured young (PD 25) and senescent (PD 73) cells (A), skin fibroblasts from young and elderly donors (B), HUVEC (C) and skin keratinocytes (D) were serum-starved for 2 days and treated with 1 mM of dibutyryl-cAMP (dbcAMP), or 300 […]μM of ACI (SQ22536) for 2 hrs. Cells were then treated with 30 μM of LPA in the presence of 0.5 μCi/ml of [^3H]-radioactive isotope. The radioactivity incorporated into the DNA was counted and fold increase of radioactive isotope incorporation was calculated and plotted. The results shown represent the means±standard deviation of a representative experiment. Human umbilical vein endothelial cells (HUVEC) were isolated from endothelial cells of umbilical cords as described by Whang et al (Whang et al., 2005). Foreskin human fibroblasts and keratinocytes were isolated from newborn foreskins as described by Boyce and Ham (Boyce and Ham, 1983). Patient consents were obtained from all donors and the use of tissue samples was approved by the ethics committee of the Seoul National University. The obtained and isolated fibroblasts and HUVEC were maintained in DMEM containing 10% fetal bovine serum (FBS) and antibiotics, and keratinotyes were in keratinocyte growth medium (KGM) containing antibiotics. Cells from the early stage of culture were cultured to obtain aged cells, which were used in experiments (population doubling -PD- of less than 25 vs PD 65-70 in fibroblasts, PD less than 5 vs PD 10-12 in case of HUVEC). Senescent cells were characterized by morphological changes, enhanced […]β-galactosidase activity and a reduced rate of proliferation (Yeo et al., 2000). Cells were grown for 2 days to 60-70% sub-confluency in the culture medium after treatment with LPA or ACI, and then serum-starved to quiescence by incubating them with either serum free DMEM containing 0.1% BSA (fibroblasts or HUVEC) or KBM (keratinocytes) for 2 days. […] Radioactivity in the neutralized lysates was counted in a liquid scintillation cocktail. The measured radioactivity as such was compared to that of control to find the synthesis degree of […].

[2] = system: young and senescent fibroblasts, HUVEC, skin keratinocytes; experiment: Cell growth / proliferation (cell number count); assay type: cell-based, human; settings: for cell number in senescent cells of various cell types: senescent fibroblasts, old donor fibroblasts, HUVEC, keratinocytes, degree depends on cell type (FIG. 5)
Method: Sub-cultured young (PD 25, A) and senescent (PD 73, B) fibroblasts were serum-starved for 2 days and treated with LPA, 1 mM of dbcAMP (+dbcAMP), or 300 μM of ACI SQ22536 (+ACI) for 4 days. The number of cells was counted. The results shown represent the means±standard deviation of a representative experiment.
Sub-cultured young (PD 25) and senescent (PD 73) cells (A), fibroblasts from young and elderly donors (B), HUVEC (C) and skin keratinocytes (D) were serum-starved for 2 days and treated with LPA, and then treated with 1 mM of dibutyryl-cAMP, or 300 μM of ACI (SQ22536) for 4 days. The number of cells was counted. The results shown represent the means±standard deviation of a representative experiment.
(§1) Human umbilical vein endothelial cells (HUVEC) were isolated from endothelial cells of umbilical cords as described by Whang et al (Whang et al., 2005). Foreskin human fibroblasts and keratinocytes were isolated from newborn foreskins as described by Boyce and Ham (Boyce and Ham, 1983). Patient consents were obtained from all donors and the use of tissue samples was approved by the ethics committee of the Seoul National University. The obtained and isolated fibroblasts and HUVEC were maintained in DMEM containing 10% fetal bovine serum (FBS) and antibiotics, and keratinotyes were in keratinocyte growth medium (KGM) containing antibiotics. Cells from the early stage of culture were cultured to obtain aged cells, which were used in experiments (population doubling -PD- of less than 25 vs PD 65-70 in fibroblasts, PD less than 5 vs PD 10-12 in case of HUVEC). Senescent cells were characterized by morphological changes, enhanced […]β-galactosidase activity and a reduced rate of proliferation (Yeo et al., 2000). Cells were grown for 2 days to 60-70% sub-confluency in the culture medium after treatment with LPA or ACI, and then serum-starved to quiescence by incubating them with either serum free DMEM containing 0.1% BSA (fibroblasts or HUVEC) or KBM (keratinocytes) for 2 days.

[3] = system: young and senescent fibroblasts (HDFs); experiment: In vitro wound healing assay (cell migration into acellular area); assay type: cell-based, human; settings: for migration of senescent cells / migration of young cells: serum-starved; for migration of senescent cells: LPA 30 μM, ACI 300 μM, 72 hrs (FIGS. 6B, 6D); for migration of young cells: LPA 30 μM or ACI 300 μM, up to 72 hrs (FIGS. 6A, 6C)
Method: Sub-cultured young (A, C) and senescent cells (B, D) were serum-starved for 2 days and treated with ACI or dbcAMP (1 mM) for 2 hr at 37° C. An area was denuded by a yellow tip and the cells were then treated with LPA (30 μM) and incubated at 37° C. Photographs were taken at 6 hrs, 12 hrs, 18 hrs, 24 hrs, 30 hrs, 36 hrs, 42 hrs, 60 hrs, and 72 hrs, and the number of cells migrated into the acellular area was counted and the average values were plotted in A and B. The data at 72 hrs were replotted in a bar graph to show the significant changes induced by treating cells with either LPA or ACI, or both (C and D). The results shown represent the means±standard deviation of a representative experiment. Cell migration from each group (p<0.001) was compared to the control value the migration was read as having a significance.
LPA-induced cell migration was assessed by the ability of the cells to move into an acellular area (Shiraha et al., 2000). Cells were plated on a 10-cm plastic dish and grown to 70-80% confluence in the culture media with 10% FBS. After a 2-day quiescence in serum free media with 0.1% BSA, cells were pretreated with vehicle, ACI (300 μM), or dbcAMP (1 mM) for 2 hrs at 37° C. An area was denuded by a tip and the cells were then incubated at 37° C. without or with LPA (30 μM). Photographs were taken at 6 hrs, 12 hrs, 18 hrs, 24 hrs, 30 hrs, 36 hrs, 42 hrs, 60 hrs, and 72 hrs, and the number of cells migrating to the acellular area was counted.

[4] = system: skin wounds of young and aged Fisher 344 rats; experiment: Skin wound healing in young and aged rats (photographs, H & E, PCNA staining); assay type: in vivo, rat; settings: for epithelialization (H & E) of aged wounded rats: day 4, compared to control untreated groups; for PCNA staining in aged rats: wound sections, versus very weak staining in control aged rats; for number of PCNA positive cells / wound healing rate (photographs of wounds): young and aged rats; for number of PCNA positive cells: wound sections (FIG. 9B, 9C); for wound healing rate (photographs of wounds): LPA 30 μM, ACI 300 μM, 200 μl topical once per two days, 4th day (FIG. 7)
Method: Rats were anesthetized with intraperitoneal injection of ketamine and xylazine. The back was shaved (A) and four full-thickness circular skin wounds of 1.0 cm diameter were cut (B). A teflon wound chamber was glued into the edge of the skin and then sewn using a […] (C).
Young and old rats were anesthetized and wounded as described in the legend of FIG. 1. 200 μl aliquots of the solutions containing LPA (30 μM), ACI (300 μM), and the mixture of LPA and ACI dissolved in physiological saline were applied onto wound sites using a sterile glass filter in each wound chamber once per two days. After 4 days, the wounds were photographed.
Young and old rats were anesthetized and wounded as described in the legend of FIG. 1. The wounds were treated with LPA (30 μM), ACI (300 μM), or the mixture of LPA and ACI as described in the legend of FIG. 1c. On postoperative days 4, animals were anesthetized and killed as described in “Materials and Methods”. Approximately 5-mm-thick section across the dorsoventral diameter of the wound was cut and fixed and embedded in paraffin. Serial sections were cut and processed for hematoxylin-eosin (H & E) staining. H & E stained epithelial layer was visualized on the top of each section.
Young and aged rats were anesthetized and wounded as described in the legend of FIG. 1. The wounds were treated with LPA (30 μM), ACI (300 μM), or the mixture of LPA and ACI as described in the legend of FIG. 1c. On postoperative days 2, 4, and 7, animals were anesthetized and killed as described in “Materials and Methods”. An about 5-mm-thick section across the dorsoventral diameter of the wound was cut and fixed and embedded in paraffin. Serial sections were cut and processed for immunohistochemistry using PCNA as described in “Materials and Methods”. The presence of PCNA was visualized by using avidin-biotin peroxidase complex method and the control was counterstained with hematoxylin. The photographs from postoperative days 4 are shown in A. The number of PCNA positive cell was counted from each photograph and plotted in B (young rats) and C (aged rats).
Rats aged 6 months and 24 months which were used in experiments were purchased from Samtaco BioKorea (Seoul, Korea) and housed two per cage in a room with controlled temperature and humidity with a 12:12-h light-dark cycle. They were maintained on a standard diet with food and water ad libitum in an animal facility accredited by the Korean Association for Accreditation of Laboratory Animal Care. Animals were divided into treatment groups, each consisting of nine, and used in experiments.
Rats were anesthetized with intraperitoneal injection of ketamine and xylazine (87/13 mg/kg). Skin wounding and its protection was performed as described by Balazs (Balazs et al., 2001). By the dermabrasion technique using diamond bar, four second-degreed partial thickness circular wounds of 1.0 cm. A teflon wound chamber with a 1.2 cm inner diameter centered around the wound was glued into the edge of the skin with Histoacryl and then sewn using a surgical nylon suture (Ethicon 4-0) (FIG. 1C). In order to protect wound site, upon treatment with LPA or ACI, they were sprayed using a sterile filter (GF-C Whatman), followed by treatment. This work was carried out by a single plastic surgeon for consistency and exactness of experiments. 30 μM of LPA, 300 μM of ACI, and the mixture of LPA (30 μM) and ACI (300 μM) are dissolved in physiological saline to be a 200-μl aliquot, respectively. The 200-μl aliquot, corresponding to 30 pmol/mm^2, was applied […] into the wound of the animals anesthetized with inhalation. The contralateral side received 200 μl of saline as a control. […]
Serial sections (4 […]μm thick) were cut and processed for hematoxylin-eosin (H & E) and immunohistological staining. Paraffin sections on the microslides were deparaffinized in xylene and rehydrated sequentially in alcohol. […]

[5] = system: cAMP level in young and senescent fibroblasts; experiment: Measurement of cyclic AMP (cAMP) by competitive binding assay; assay type: cell-based, human
Method: Sub-cultured young (PD 20) and senescent (PD 65) fibroblasts were treated with various concentrations of ACI for 1 hr. The level of cAMP in the acid extracts was measured by using a cAMP binding assay. The results shown represent the means±standard deviation of a representative experiment.
as §1
After removing the medium, 2.5 M of perchloric acid was added into the plate. The obtained acid extract was stored at […] until use, when the extract was neutralized with 4.2 M KOH and the cAMP content was determined by competitive binding with [^3H]-cAMP to the cAMP binding protein, RIα[…] of cAMP-dependent protein kinase (Jang and Juhnn, 2001). After the extraction, cells were lysed with 0.1 N NaOH and protein content was determined using Bradford protein assay reagent. The cAMP content was normalized versus the amount of acid-insoluble protein (expressed as the content of cAMP per protein concentration).

Row | Molecule | basal and LPA-stimulated DNA synthesis in senescent cells [1] | thymidine incorporation, basal and LPA-stimulation conditions ([1]; young and aged fibroblasts, HUVEC and keratinocytes, 300 μM ACI (FIG. 4)) | proliferation of aged cells compared to treatment with LPA ([2]; aged fibroblasts) | cell number in senescent cells following ACI treatment ([2]; senescent fibroblasts (PD 73), 300 μM ACI, 4 days, unlike young cells (FIG. 3B)) | cell number in senescent cells of various cell types ([2]; 4 days) | migration of senescent cells [3] | migration of young cells [3] | epithelialization (H & E) of aged wounded rats [4] | PCNA staining in aged rats [4] | number of PCNA positive cells [4] | wound healing rate (photographs of wounds) [4] | cAMP levels at 300 μM ([5]; 300 μM ACI, both young and senescent cells (FIG. 2)) | concentration of cAMP in aged cells upon treatment with ACI ([5]; aged fibroblasts, ACI) | cAMP levels ([5]; various concentrations of ACI, 1 hr, young (PD 20) and senescent (PD 65) fibroblasts (FIG. 2)) | LPA-induced proliferation ([2]; both young and senescent cells, 1 mM dbcAMP after LPA, 4 days (FIG. 3)) | LPA-induced cell migration ([3]; dbcAMP 1 mM with LPA 30 μM) | basal cell migration ([3]; young and senescent cells, 1 mM dbcAMP) | cell number (proliferation) ([2]; LPA 1-70 μM, 4 days, young and senescent fibroblasts (FIG. 3)) | concentration of cAMP in aged cells ([5]; aged fibroblasts, treatment with LPA) | concentration of cAMP in young cells ([5]; young fibroblasts, treatment with LPA)
1 | Nc1ncnc2c1ncn2C1CCCO1 (stereo not shown) [ACI, 9-(tetrahydro-2′-furyl)adenine] | increased | enhanced the thymidine incorporation | more increased | significant increase in the cell number | further enhanced | increase in cell migration | unaltered | higher | increased significantly | increased significantly | faster than the untreated controls | complete abrogation | again lowered | dose-dependently reduced cAMP levels |  |  |  |  |  | 
2 | CCCC(=O)Nc1ncnc2c1ncn2[C@@H]1O[C@@H]2COP(=O)(O)O[C@H]2[C@H]1OC(=O)CCC [dbcAMP, dibutyryl cAMP] | decreased |  |  |  |  |  |  |  |  |  |  |  |  |  | decreased | reduced | did not significantly affect |  |  | 
3 | lysophosphatidic acid [LPA] |  |  |  |  | further enhanced | increased senescent cell migration at 72 hrs significantly | migration of cells is increased | higher | increased significantly | increased significantly | faster than the untreated controls |  |  |  |  |  |  | induces proliferation of both young and senescent cells in a dose-dependent manner | increased | lowered
